Series [1] concerns the target human liver microsomal cytochrome P450 2E1 (CYP2E1) (Homo sapiens, UniProt P05181). Put plainly: Human liver microsomal CYP2E1, chlorzoxazone 6-hydroxylation. (Microsomes from liver hold many membrane-bound enzymes, among them those of drug oxidation.);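 further: chlorzoxazone added as substrate, 6-hydroxychlorzoxazone formation quantified by LC/MS/MS after 30 min at 37 °C with NADP+ regenerating system, compared against solvent control without test sample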
The test system of the next series is amidase. The series is described as follows: Mouse liver microsomal amidase, isoniazid to isonicotinic acid. Format: biochemical. The source says: Mouse liver microsomes were used as the source of amidase, and isoniazid was used as the amidase metabolism drugs. quantitative isoniazid was catalyzed into metabolites isonicotinic acid (INA) by amidase, and was used as the index for measurement of the amidase activity for establishment of the platform for screening in vitro amidase activity inhibitors. The HPLC system includes a Shimadzu the LC-LOAD pump, 1 Shimadzu system control and a Shimadzu autosampler (Shimadzu Scientific Instrument, Japan). A C18 column (particle size 5 μm, inner diameter of 50×4.6 mm, 25 cm) containing 70% methanol and 30% ammonium formate (50 mM, pH=2.5) of the mobile phase for HPLC separation, and the experimental steps are outlined as follows:
(2) An aliquot of 150 μL mouse liver microsomal solution was added to 100 μL isoniazid solution in 35 μL 67 mM potassium phosphate buffer solution ([…], pH=7) with a final concentration at 3 mM, and then mixed thoroughly with 15 μL amidase inhibitor (deionized water was added in the control group). (3) Incubation at 37° C. water bath for 30 minutes. (4) An aliquot of 300 μL acetonitrile (ACN) was added and mixed thoroughly, and incubated for 6 minutes. (5) An aliquot of 30 μL perchloric acid was then mixed and incubated for 6 minutes. (6) The mixture was centrifuged at 13000 g for 6 minutes. (7) After centrifugation, 100 μL of the supernatant was injected into HPLC. (8) Methanol ammonium formate (50 mM, pH=2.5)=70:30 (V/V) was selected as the mobile phase, and the flow rate was controlled at […] and detected at 270 nm UV. […] The amidase inhibition % was then calculated using the following formula: […]
Method: Microsomes prepared from human liver were used to extract cytochrome P450 2E1 (CYP2E1) and CYP2E1 inhibitors were screened from 39 Chinese medicine guiding drugs and 10 excipients. Chlorzoxazone hydroxylation is a reaction catalyzed primarily by CYP2E1 in liver. The extracted human liver microsomal cytochrome P450 2E1 (CYP2E1) was mixed with its substrate, Chlorzoxazone, and test sample was then added Inhibition of CYP2E1 activity was calculated by measuring CYP2E1 standard metabolite, 6-OH-CZX (6-Hydroxy-Chlorzoxazone), and compared with control 6-OH-CZX.
After incubation, 16 mM Chlorzoxazone and test samples were added to experimental groups; methanol:sterilized water at 1:1 ratio was added to control groups and DDTC was added to positive control groups,
Finally, cofactor 1 mM NADP^+, 10 mM G6P and 2 IU G6PD were added and reaction mixtures were transferred to pre-incubation 37° C. water bath for 1 mM and activity was measured after 30 min of reaction
At the end of reaction, 500 μl acetonitrile was added to stop the reaction followed by 5 g/mL 4-hydroxy-tobutamide after 1 mM incubation. The mixture was then centrifuged and 20 L of supernatant was diluted ten times with methanol/sterilized water and 5 L was used for LC/MS/MS analysis. […] The inhibition of CYP2E1 was then calculated by the following equation:

[2] abbreviates: Table 6, minimum tested concentration (mg/L) × volume of human liver and intestine (3 L).

Sequence of human liver microsomal cytochrome P450 2E1 (CYP2E1) (P05181 whole entry): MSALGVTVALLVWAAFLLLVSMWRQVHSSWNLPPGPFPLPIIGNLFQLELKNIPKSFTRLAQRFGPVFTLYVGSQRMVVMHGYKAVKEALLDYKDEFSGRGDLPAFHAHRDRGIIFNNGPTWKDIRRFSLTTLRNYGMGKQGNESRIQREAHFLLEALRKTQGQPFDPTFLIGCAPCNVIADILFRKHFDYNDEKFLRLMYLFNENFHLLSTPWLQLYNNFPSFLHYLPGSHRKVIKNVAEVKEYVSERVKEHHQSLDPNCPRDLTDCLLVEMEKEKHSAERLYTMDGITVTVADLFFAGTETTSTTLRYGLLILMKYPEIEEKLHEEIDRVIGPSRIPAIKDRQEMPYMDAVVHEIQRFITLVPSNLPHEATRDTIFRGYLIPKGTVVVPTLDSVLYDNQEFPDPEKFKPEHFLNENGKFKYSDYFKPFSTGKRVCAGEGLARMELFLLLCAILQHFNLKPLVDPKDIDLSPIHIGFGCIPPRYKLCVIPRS

For `COc1ccc([C@@H]2CC(=O)c3c(O)cc(O[C@@H]4O[C@H](CO)[C@@H](O)[C@H](O)[C@H]4O[C@@H]4O[C@@H](C)[C@H](O)[C@@H](O)[C@H]4O)cc3O2)cc1O` [Neohesperidin], the figures for the “Inhibition of CYP 2E1” value in series [1] (16.5 μM), in series [1] (33 μM) and in series [1] (66 μM) were 42.81 ± 1.75%, 48.96 ± 2.37% and 58.70 ± 1.06%, respectively. The “Minimum Effective Dose” value in series [1] (setting [2]) stood at 33 mg.

Consider Magnesium stearate, for which the “Inhibition of CYP 2E1” value is 2.0 ± 1.0% in series [1] (16.5 μM), 3.0 ± 0.7% in series [1] (33 μM) and 5.0 ± 1.6% in series [1] (66 μM).

With `O=[N+]([O-])c1ccc(OP(=O)(O)Oc2ccc([N+](=O)[O-])cc2)cc1` [BNPP, bis-p-nitrophenyl phosphate, reference compound], the Amidase inhibition in the series with amidase (positive control, own concentration not given) came out at 92.1 ± 8.7%.

On to `O=c1cc(-c2ccc(O)cc2)oc2c([C@@H]3O[C@H](CO)[C@@H](O)[C@H](O)[C@H]3O)c(O)cc(O)c12` [Vitexin], for which the “Minimum Effective Dose” value in series [1] (setting [2]) worked out at 24 mg.

Regarding `O=c1c(O)c(-c2ccc(O)c(O)c2)oc2cc(O)ccc12` [Fisetin], the Amidase inhibition in the series on amidase (1 uM) is −9.2 ± 2.5%; in the series with amidase (10 uM) it was 38.3 ± 2.0%; in the series on amidase (100 uM) it was 56.4 ± 2.9%.

Consider `COc1cc(-c2cc(=O)c3c(O)cc(O)cc3o2)ccc1O` [Chrysoeriol], for which the Amidase inhibition with amidase (1 uM) worked out at 7.7 ± 7.1%; with amidase (10 uM), 24.9 ± 11.2%; in the series with amidase (100 uM) it was 23.2 ± 1.2%.

Turning to `CCCCCCCCCCCCO` [Lauryl Alcohol], the Amidase inhibition is reported as 2.2 ± 3.1% in the series with amidase (1 uM), −0.7 ± 1.5% with amidase (10 uM) and 4.1 ± 4.3% with amidase (100 uM).

Turning to `O=C(/C=C/c1ccc(O)cc1)c1ccc(O)cc1O` [Isoliquritigenin], the Amidase inhibition in the series with amidase (1 uM) was −18.7 ± 26.0%; with amidase (10 uM) it was 17.7 ± 8.3%; with amidase (100 uM) it was 57.2 ± 8.5%.

Regarding `COc1cc(/C=C/C(=O)CC(=O)/C=C/c2ccc(O)c(OC)c2)ccc1O` [Curcumin], the Amidase inhibition is given as 16.9 ± 11.0% in the series with amidase (1 uM), 16.1 ± 0.4% in the series with amidase (10 uM) and 9.7 ± 6.0% with amidase (100 uM).

Consider `CC12CCC(CC1)C(C)(C)O2` [Cineole], for which the values for the Amidase inhibition in the series with amidase (1 uM), in the series on amidase (10 uM) and in the series with amidase (100 uM) were −16.5 ± 17.5%, −4.7 ± 4.9% and 22.9 ± 10.4%, respectively.

For `O=c1cc(-c2ccccc2)oc2c1ccc1ccccc12` [α-Naphthoflavone], the Amidase inhibition with amidase (1 uM) is reported as 7.3 ± 7.9%; with amidase (10 uM) it was 19.3 ± 3.7%; with amidase (100 uM), 36.9 ± 2.7%.

Turning to `COc1ccc([C@@H]2CC(=O)c3c(O)cc(O[C@@H]4O[C@H](CO[C@@H]5O[C@@H](C)[C@H](O)[C@@H](O)[C@H]5O)[C@@H](O)[C@H](O)[C@H]4O)cc3O2)cc1O` [Hesperidin], the “Inhibition of CYP 2E1” value in series [1] (16.5 μM) is 45.32 ± 1.57%; in series [1] (33 μM) it was 50.91 ± 2.81%; in series [1] (66 μM), 58.57 ± 3.78%. The “Minimum Effective Dose” value in series [1] (setting [2]) was determined as 33 mg.

`CC1(C)[C@@H](O[C@H]2O[C@H](C(=O)O)[C@@H](O)[C@H](O)[C@H]2O[C@@H]2O[C@H](C(=O)O)[C@@H](O)[C@H](O)[C@H]2O)CC[C@]2(C)[C@H]3C(=O)C=C4[C@@H]5C[C@@](C)(C(=O)O)CC[C@]5(C)CC[C@@]4(C)[C@]3(C)CC[C@@H]12` [Glycyrrhizin]: the Amidase inhibition is −1.3 ± 3.1% with amidase (1 uM), 4.3 ± 11.3% with amidase (10 uM) and 24.4 ± 12.7% in the series with amidase (100 uM).

With `COc1ccc([C@@H]2CC(=O)c3c(O)cc(O[C@@H]4O[C@H](CO)[C@@H](O)[C@H](O)[C@H]4O[C@@H]4O[C@@H](C)[C@H](O)[C@@H](O)[C@H]4O)cc3O2)cc1` [Poncirin], the figures for the Amidase inhibition in the series with amidase (1 uM), in the series on amidase (10 uM) and in the series on amidase (100 uM) were 10.8 ± 3.8%, 8.1 ± 11.7% and 17.3 ± 5.8%, respectively.

`Oc1cc(O)c2c(c1)O[C@@H](c1ccc(O)c(O)c1)[C@@H](O)C2` [(+)-Epicatechin]: the “Inhibition of CYP 2E1” value in series [1] (16.5 μM) turned out to be 66.71 ± 1.79%; in series [1] (33 μM) it was 52.32 ± 1.59%. For the same compound, the “Minimum Effective Dose” value in series [1] (setting [2]) was 16 mg.

On to `O=S(=O)([O-])NC1CCCCC1.[Na+]` [Sodium cyclamate], for which the “Inhibition of CYP 2E1” value in series [1] (16.5 μM) turned out to be 9.4 ± 2.7%; in series [1] (33 μM), 1.7 ± 4.7%; in series [1] (66 μM), 9.1 ± 2.6%.

As to `C[C@@H]1O[C@@H](OC[C@H]2O[C@@H](Oc3c(-c4ccc(O)c(O)c4)oc4cc(O)cc(O)c4c3=O)[C@H](O)[C@@H](O)[C@@H]2O)[C@H](O)[C@H](O)[C@H]1O` [Rutin], the “Minimum Effective Dose” value in series [1] (setting [2]) is given as 33 mg.

Consider `O=C(O[C@@H]1Cc2c(O)cc(O)cc2O[C@@H]1c1cc(O)c(O)c(O)c1)c1cc(O)c(O)c(O)c1` [(−)-Epigallocetechin-3-gallate], for which the entries for the “Inhibition of CYP 2E1” value in series [1] (16.5 μM), in series [1] (33 μM) and in series [1] (66 μM) were 50.19 ± 1.89%, 60.53 ± 2.06% and 72.16 ± 1.02%, respectively.

As for (−)-Epicatechin-3-gallate, the “Inhibition of CYP 2E1” value in series [1] (16.5 μM) is 30.31 ± 1.27%; in series [1] (33 μM), 34.84 ± 1.72%; in series [1] (66 μM), 42.92 ± 0.65%. Moreover, in series [1] (setting [2]), the “Minimum Effective Dose” value is on record as 24 mg.

As for `O=C1C[C@@H](c2ccc(O[C@@H]3O[C@H](CO)[C@@H](O)[C@H](O)[C@H]3O)cc2)Oc2cc(O)ccc21` [Liquiritin], the Amidase inhibition with amidase (1 uM) is 2.5 ± 2.9%; in the series on amidase (10 uM), −7.5 ± 13.4%; in the series on amidase (100 uM), 12.5 ± 8.3%.

For the compound `COc1ccc(O)c(C(C)(C)C)c1` [Butylated hydroxyl anisol], the “Inhibition of CYP 2E1” value in series [1] (16.5 μM) was −16.8 ± 0.5%; in series [1] (33 μM), −47.1 ± 5.1%; in series [1] (66 μM), −85.5 ± 3.9%. Besides, the “Minimum Effective Dose” value in series [1] (Table 7) stood at 9 mg.

In the case of `O=C1C[C@@H](c2ccc(O)c(O)c2)Oc2cc(O)cc(O)c21` [Eriodictyol], the Amidase inhibition with amidase (1 uM) was 9.0 ± 4.7%; in the series with amidase (10 uM) it was 6.5 ± 11.3%; in the series with amidase (100 uM) it was 22.3 ± 4.7%.

`O=c1c(O)c(-c2ccccc2)oc2cc(O)cc(O)c12` [Galangin]: the figures for the Amidase inhibition in the series on amidase (1 uM), in the series with amidase (10 uM) and with amidase (100 uM) were 9.6 ± 9.9%, 32.8 ± 4.4% and 61.5 ± 2.7%, respectively.

`O=C([O-])c1ccccc1.[Na+]` [Sodium benzoate]: the results for the “Inhibition of CYP 2E1” value in series [1] (0.08% (w/v)), in series [1] (0.167% (w/v)) and in series [1] ([…] (w/v)) were 7.8 ± 4.1%, 15.8 ± 0.9% and 7.1 ± 2.0%, respectively. Besides, the “Minimum Effective Dose” value in series [1] (Table 7) was found to be 9 mg.

On to `COc1ccc(-c2cc(=O)c3c(O)c(OC)c(OC)cc3o2)cc1O` [Eupatorin], for which the figures for the Amidase inhibition in the series on amidase (1 uM), with amidase (10 uM) and in the series on amidase (100 uM) were 0.9 ± 2.8%, 7.5 ± 0.7% and 12.0 ± 7.4%, respectively.

Take `CC1(C)CC[C@]2(C(=O)O)CC[C@]3(C)C(=CC[C@@H]4[C@@]5(C)CC[C@H](O)C(C)(C)[C@@H]5CC[C@]43C)[C@@H]2C1` [Oleanolic Acid]: the Amidase inhibition in the series on amidase (1 uM) is listed as 20.3 ± 5.2%; in the series with amidase (10 uM), 14.8 ± 3.4%; with amidase (100 uM), 24.5 ± 4.0%.

Consider `CC(C)[C@@H](C)/C=C/[C@@H](C)[C@H]1CC[C@H]2C3=CC=C4C[C@@H](O)CC[C@]4(C)[C@H]3CC[C@]12C` [Ergosterol], for which the Amidase inhibition in the series on amidase (1 uM) was 4.3 ± 10.7%; in the series with amidase (10 uM), −0.4 ± 10.7%; with amidase (100 uM), 0.4 ± 3.6%.

With `COc1ccc(-c2cc(=O)c3c(OC)c(OC)c(OC)cc3o2)cc1OC` [Sinensetin], the Amidase inhibition is −0.8 ± 3.0% in the series with amidase (1 uM), 6.6 ± 0.5% with amidase (10 uM) and 9.7 ± 0.9% with amidase (100 uM).

For the compound `O=c1cc(-c2ccc(O)c(O)c2)oc2cc(O)c([C@@H]3O[C@H](CO)[C@@H](O)[C@H](O)[C@H]3O)c(O)c12` [Homoorientin], the Amidase inhibition in the series with amidase (1 uM) stood at 7.4 ± 3.8%; in the series with amidase (10 uM) it was 3.5 ± 0.9%; in the series with amidase (100 uM), 18.0 ± 2.6%.

Consider `COc1ccc(-c2cc(=O)c3c(O)cc(O)c(-c4cc(-c5cc(=O)c6c(O)cc(OC)cc6o5)ccc4OC)c3o2)cc1` [Sciadopitysin], for which the Amidase inhibition worked out at 10.3 ± 3.8% with amidase (1 uM), 20.7 ± 6.0% with amidase (10 uM) and 20.6 ± 19.3% in the series on amidase (100 uM).

Regarding `C[C@@H]1O[C@@H](OC[C@H]2O[C@@H](Oc3cc(O)c4c(c3)O[C@H](c3ccc(O)c(O)c3)CC4=O)[C@H](O)[C@@H](O)[C@@H]2O)[C@H](O)[C@H](O)[C@H]1O` [Eriocitrin], the Amidase inhibition is −16.1 ± 12.8% in the series with amidase (1 uM), 19.0 ± 3.0% with amidase (10 uM) and 32.8 ± 1.9% with amidase (100 uM).

On to `O=c1c(-c2ccc(O)cc2)coc2cc(O[C@@H]3O[C@H](CO)[C@@H](O)[C@H](O)[C@H]3O)ccc12` [Daidzin], for which the Amidase inhibition worked out at 3.6 ± 3.0% in the series with amidase (1 uM), 1.1 ± 5.4% in the series on amidase (10 uM) and 7.4 ± 6.3% in the series on amidase (100 uM).

(Values after patent US8969312B2, “Low side effect pharmaceutical composition containing antituberculosis drugs” (priority 2011, dated 2015).)
